Where two headings read alike, the source gives them in different places.

Experimental findings from patent US20260137706A1, “METHODS OF TREATING INFLAMMATORY DISEASES” (INTERLINE THERAPEUTICS, INC., priority 2023, published 2026) are described below.

Experiment [1] addresses T1, binding of His-XIAP(BIR2)-avi fusion protein to GST-RIPK2 fusion protein (RIPK2/XIAP) (Homo sapiens, UniProt O43353).
T1 construct: made in house; host or cells: baculovirus infected Sf9 cells
The experiment is described as follows: RIPK2-XIAP binding competition PPI assay (TR-FRET). The settings on record: RIPK2/XIAP binding competition PPI assay; for Emax / PPI Amax bin: Amax; for Emax: read-out: PPI Amax bin; for IC50: read-out: PPI IC50 bin. The text has this: The ability of selected compounds of Formula (I) to inhibit the binding of an His-XIAP(BIR2)-avi fusion protein to a GST-RIPK2 fusion protein was quantified employing the TR-FRET-based competition assay as described in the following paragraphs.
Recombinant fusion protein of N-terminal Glutathione-S-Transferase (GST) and a fragment of human RIPK2 (amino acids 1-310 of accession number 043353), expressed in baculovirus infected Sf9 cells, purified via glutathione affinity chromatography, was used as GST-RIPK2 fusion protein. Recombinant fusion protein of N-terminal 6×Histidine (His), a fragment of human XIAP (amino acids 152-231 of accession number P98170), and C-terminal avi tag, expressed in baculovirus infected Sf9 cells, purified via Nickel NTA affinity chromatography, was used as the His-XIAP(BIR2)-avi fusion protein.
For the assay, a working solution of 1 nM GST-RIPK2, 25 nM His-XIAP(BIR2)-avi, 6 nM Anti-His-XL665 […] (Revvity Catalogue No. 61HISXLB), and 0.5 nM Anti-GST-Tb (Revvity Catalogue No. 61GSTTLB) in 25 mM Tris-HCl 7.5, 0.5 mM ethylene glycol-bis(2-aminoethylether)-N,N,N′,N′-tetraacetic acid (EGTA), 10 mM magnesium chloride (MgCl2), 2.5 mM dithiothreitol (DTT), 0.01% (w/v) bovine serum albumin (BSA), 0.005% (w/v) Pluronic F-127 (Sigma), 0.5 mM sodium ortho-vanadate, 5 mM β-Glycerophosphate disodium salt hydrate (BGP) was prepared. 50 nL of a 100-fold concentrated solution of each test compound in DMSO was dispensed via acoustic dispensing into a white low volume 384-well microtiter plate (Perkin Elmer Catalogue No. 6008280). Subsequently, 5 μL of the assay working solution were added.
The resulting mixture was incubated 120 min at 23° C. Subsequently, the amount of complex formed by the GST-RIPK2, XIAP(BIR2)-avi, Anti-His-XL665, and Anti-GST-Tb was evaluated by measurement of the resonance energy transfer from the Tb-cryptate to the XL665. Therefore, the fluorescence emissions at 520 nm and 665 nm after excitation at 337 nm were measured in a TR-FRET reader, e.g. a Pherastar FS (BMG Labtechnologies, Offenburg, Germany) or an Envision (PerkinElmer). The ratio of the emissions at 665 nm and at 520 nm was taken as the measure of the amount of the complex. The data were normalized (assay reaction without inhibitor=0% activity, 50 nM of GSK583=−100% activity).
For the RIPK2/XIAP binding competition PPI assay Amax values, “A” denotes an Amax of ≥80%; “B” denotes an Amax of 80%>B≥55; “C” denotes an Amax of 55%>C>30; and “D” denotes an Amax of ≤30%.
In general terms: In TR-FRET formats the signal depends on donor and acceptor labels being close together.

Experiment [2] relates to NF-κB pathway (SEAP) in THP1-Dual cells. The experiment is described as follows: THP-1 Dual cell SEAP assay (L18-MDP stimulated). Format: cell-based. To be noted: read-out: NF-κB THP1 IC50 bin. The protocol: THP1-Dual™ cells (InvivoGen Cat #thpd-nfis) allow simultaneous assessment of the NF-κB pathway, by monitoring the activity of secreted embryonic alkaline phosphatase (SEAP) as well as the IRF pathway, by assessing the activity of a secreted luciferase (Lucia). Cells were cultured according to manufacturers' recommendations. For the assay, cell concentration was adjusted to 7.14×10^5 cells/mL in assay media (RPMI 1640, 2 mM L-Glutamine, 25 mM HEPES, 10% fetal bovine serum (heat-inactivated for 30 min at 56° C.), Pen-Strep (100 U/mL)) and 35 µL of cell suspension (˜25,000 cells) per well were added to a flat bottom 384-well plate (white opaque). Plate was centrifuged at 300 g for 2 min, compounds were added in serial dilution series according to the plate layout (volumes ˜500 nL-0.0152 nL) and plate was incubated at 37° C. in 5% CO2 for 30 min. Using assay media, a L18-MDP stock solution, that results in a final concentration of 10 ng/mL L18-MDP in each well when adding 15 μL to each well, was prepared. 15 μL of L18-MDP stock solution was added to each well, while 15 μL of assay media was added to the negative control wells. Plates were subsequently incubated at 37° C. in 5% CO2 overnight (20-24 h).
For the SEAP assay: without disturbing the cells at the bottom of the well, 15 μL supernatant was transferred to a clear 384-well flat bottom plate and 35 μL QUANTI-Blue Solution per well was added. Following a 2 h incubation at 37° C., the optical density (OD) was measured at 620-655 nm using a microplate reader (PheraStar FS microplate reader with protocol for OD 620-655 nm).
Values of media-only wells were subtracted and % inhibition for each compound concentration relative to the DMSO/L18-MDP-treated controls was calculated. Inhibition values+/−SD were fitted by non-linear regression using Prism software (GraphPad PRISM Software) to calculate IC50 values.

T1 sequence (O43353 1-310 limits assumed): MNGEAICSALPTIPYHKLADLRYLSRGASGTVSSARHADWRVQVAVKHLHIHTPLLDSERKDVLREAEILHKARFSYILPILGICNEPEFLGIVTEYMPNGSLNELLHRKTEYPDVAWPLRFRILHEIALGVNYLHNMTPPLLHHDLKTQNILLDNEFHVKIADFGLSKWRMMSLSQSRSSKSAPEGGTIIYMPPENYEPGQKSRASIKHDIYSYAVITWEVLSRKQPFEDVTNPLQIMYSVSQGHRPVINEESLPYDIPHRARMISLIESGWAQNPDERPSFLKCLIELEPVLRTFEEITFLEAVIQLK

Turning to `COc1cc2ncc(-c3cc(F)c(OC)c(NS(=O)(=O)c4csc(C)n4)c3)n2cc1S(=O)(=O)C(C)(C)C` [Example 291, N-(5-(6-(tert-butylsulfonyl)-7-methoxyimidazo[1,2-a]pyridin-3-yl)-3-fluoro-2-methoxyphenyl)-2-methylthiazole-4-sulfonamide], in experiment [1], the Emax was 55 to 80% and the IC50 was less than 1 nM. Further, the 50% inhibitory concentration (IC50) in experiment [2] (Homo sapiens, THP1-Dual) was less than 50 nM.
For `C[C@H](O)COc1cc2ncc(-c3ccc(N)nc3F)n2cc1S(=O)(=O)C(C)(C)C` [Example 267, (S)-1-((3-(6-amino-2-fluoropyridin-3-yl)-6-(tert-butylsulfonyl)imidazo [1,2-a]pyridin-7-yl)oxy)propan-2-ol], in that order: greater than 80%, 2.5 to 20 nM and greater than 1000 nM.
Take `COc1cc2ncc(-c3cc(NS(=O)(=O)c4cnn(C)c4)c(OC)c(OC)c3)n2cc1N1CC(C)CC1=O` (single isomer, unassigned) [Example 275]: in experiment [1], the “PPI Amax bin” value is recorded as “A (an Amax of ≥80%)” and the IC50 is 1 to 2.5 nM. Further, the IC50 in experiment [2] is 50 to 250 nM.
For `CC(F)(CO)COc1cc2ncc(-c3cc(Cl)c(N)nc3F)n2cc1S(=O)(=O)C(C)(C)C` (single isomer, unassigned) [Example 266], in that order: “A (an Amax of ≥80%)”, 1 to 2.5 nM and 50 to 250 nM.
With `COc1cc2ncc(-c3cc(Cl)c(OC)c(NS(=O)(=O)c4cnn(C)c4)c3)n2cc1S(=O)(=O)C(C)(C)C` [Example 283, N-(5-(6-(tert-butylsulfonyl)-7-methoxyimidazo[1,2-a]pyridin-3-yl)-3-chloro-2-methoxyphenyl)-1-methyl-1H-pyrazole-4-sulfonamide], in experiment [1], the Emax is greater than 80% and the IC50 was less than 1 nM. The IC50 in experiment [2] (Homo sapiens, THP1-Dual) was less than 50 nM.
For the compound `COc1cc2ncc(-c3cc(F)c(OC)c(NC(C)c4cnn(C)c4)c3)n2cc1S(=O)(=O)C(C)(C)C` (single isomer, unassigned) [Example 302], in experiment [1], the Emax was greater than 80% and the IC50 is less than 1 nM. Also, in experiment [2], the IC50 was less than 50 nM.
For `CC(F)(CO)COc1cc2ncc(-c3cc(Cl)c(N)nc3F)n2cc1S(=O)(=O)C(C)(C)C` (single isomer, unassigned) [Example 265], in experiment [1], the Emax was greater than 80% and the IC50 fell in the range of 1 to 2.5 nM. In addition, the IC50 in experiment [2] (Homo sapiens, THP1-Dual) lay in the range of 50 to 250 nM.
For `COc1cc2ncc(-c3cc(F)c(OC)c(NS(=O)(=O)c4cnn(C)c4)c3)n2cc1C(F)(F)F` [Example 136, N-(3-fluoro-2-methoxy-5-(7-methoxy-6-(trifluoromethyl)imidazo[1,2-a]pyridin-3-yl)phenyl)-1-methyl-1H-pyrazole-4-sulfonamide], in that order: greater than 80%, 2.5 to 20 nM and 250 to 1000 nM.
For `COc1cc2ncc(-c3cc(F)c(OC)c(NS(=O)(=O)c4cc(C)ns4)c3)n2cc1S(=O)(=O)C(C)(C)C` [Example 289, N-(5-(6-(tert-butylsulfonyl)-7-methoxyimidazo[1,2-a]pyridin-3-yl)-3-fluoro-2-methoxyphenyl)-3-methylisothiazole-5-sulfonamide], in that order: 30 to 55%, less than 1 nM and 50 to 250 nM.
For `COc1cc2ncc(-c3cc(NS(=O)(=O)c4cnn(C)c4)c(OC)c(OC)c3)n2cc1N1CC2(COC2)CC1=O` [Example 271, N-(2,3-dimethoxy-5-(7-methoxy-6-(7-oxo-2-oxa-6-azaspiro[3.4]octan-6-yl)imidazo[1,2-a]pyridin-3-yl)phenyl)-1-methyl-1H-pyrazole-4-sulfonamide], in that order: greater than 80%, 2.5 to 20 nM and greater than 1000 nM.
For the compound `COc1cc2ncc(-c3cc(NS(=O)(=O)c4cnn(C)c4)c(OC)c(OC)c3)n2cc1N1CCCC1=O` [Example 273, N-(2,3-dimethoxy-5-(7-methoxy-6-(2-oxopyrrolidin-1-yl)imidazo[1,2-a]pyridin-3-yl)phenyl)-1-methyl-1H-pyrazole-4-sulfonamide], in experiment [1], the Emax was greater than 80% and the IC50 lay in the range of 1 to 2.5 nM. In addition, the IC50 in experiment [2] (Homo sapiens, THP1-Dual) is 250 to 1000 nM.

For orientation: IC50 means the point on the concentration scale where inhibition reaches its midpoint.
